Measured values reported in ChEMBL document CHEMBL6103569, “Discovery of novel fluorine-containing parthenolide analogues as potential antitumor agents” (Eur J Med Chem, 2025).
pIC50: −log10 of the molar value. The source made the active and inactive calls. No cut-off for these calls is given here.

Legend:
[1] = Antiproliferative activity against human NCI-H820 cells assessed as inhibition of cell growth incubated for 72 hrs by MTT assay; type: functional, cell-based
Huh-7 [2] = assay: Antiproliferative activity against human Huh-7 cells assessed as inhibition of cell growth incubated for 72 hrs by MTT assay; type: functional, cell-based
PANC-1 [3] = assay: Antiproliferative activity against human PANC-1 cells assessed as inhibition of cell growth incubated for 72 hrs by MTT assay; type: functional, cell-based
NCI-H820 [4] = assay: Antitumor activity against human NCI-H820 cells xenografted in BALB/c nude mouse model assessed as reduction in tumor volume at 30 mg/kg, po administered every 2 days; type: functional, organism-based; settings: time 2.0 day
NCI-H820 [5] = assay: Antitumor activity against human NCI-H820 cells xenografted in BALB/c nude mouse model assessed as reduction in tumor weight at 30 mg/kg, po administered every 2 days; type: functional, organism-based; settings: time 2.0 day
NCI-H820 [6] = assay: Inhibition of colony formation in human NCI-H820 cells incubated for 7 to 10 days by crystal violet staining based analysis; type: functional, cell-based; settings: dose 0.2-5 µM, time 7-10 day
Huh-7 [7] = assay: Inhibition of colony formation in human Huh-7 cells incubated for 7 to 10 days by crystal violet staining based analysis; type: functional, cell-based; settings: dose 0.2-5 µM, time 7-10 day
PANC-1 [8] = assay: Inhibition of colony formation in human PANC-1 cells incubated for 7 to 10 days by crystal violet staining based analysis; type: functional, cell-based; settings: dose 0.2-5 µM, time 7-10 day
[9] = Induction of apoptosis in human NCI-H820 cells assessed as viable cells at 2 uM incubated for 48 hrs by Annexin V/FITC staining based flow cytometry analysis (reference value: 98%); type: functional; settings: read-out: Activity
[10] = Induction of apoptosis in human NCI-H820 cells assessed as early apoptotic cells at 2 uM incubated for 48 hrs by Annexin V/FITC staining based flow cytometry analysis (reference value: 0.012%); type: functional
[11] = Induction of apoptosis in human NCI-H820 cells assessed as late apoptotic cells at 2 uM incubated for 48 hrs by Annexin V/FITC staining based flow cytometry analysis (reference value: 0.025%); type: functional
[12] = Induction of apoptosis in human NCI-H820 cells assessed as necrotic cells at 2 uM incubated for 48 hrs by Annexin V/FITC staining based flow cytometry analysis (reference value: 0.060%); type: functional
[13] = Induction of apoptosis in human NCI-H820 cells assessed as viable cells at 5 uM incubated for 48 hrs by Annexin V/FITC staining based flow cytometry analysis (reference value: 98%); type: functional; settings: read-out: Activity
[14] = Induction of apoptosis in human NCI-H820 cells assessed as early apoptotic cells at 5 uM incubated for 48 hrs by Annexin V/FITC staining based flow cytometry analysis (reference value: 0.012%); type: functional
[15] = Induction of apoptosis in human NCI-H820 cells assessed as late apoptotic cells at 5 uM incubated for 48 hrs by Annexin V/FITC staining based flow cytometry analysis (reference value: 0.025%); type: functional
[16] = Induction of apoptosis in human NCI-H820 cells assessed as necrotic cells at 5 uM incubated for 48 hrs by Annexin V/FITC staining based flow cytometry analysis (reference value: 0.060%); type: functional
[17] = Induction of apoptosis in human NCI-H820 cells assessed as early apoptotic cells at 10 uM incubated for 48 hrs by Annexin V/FITC staining based flow cytometry analysis (reference value: 0.012%); type: functional
[18] = Induction of apoptosis in human NCI-H820 cells assessed as late apoptotic cells at 10 uM incubated for 48 hrs by Annexin V/FITC staining based flow cytometry analysis (reference value: 0.025%); type: functional
[19] = Induction of apoptosis in human NCI-H820 cells assessed as necrotic cells at 10 uM incubated for 48 hrs by Annexin V/FITC staining based flow cytometry analysis (reference value: 0.060%); type: functional
NCI-H820 [20] = assay: Inhibition of Ki67 expression in human NCI-H820 cells incubated for 48 hrs by Western blot analysis; type: functional, cell-based; settings: dose <= 5.0 µM
NCI-H820 [21] = assay: Inhibition of Bcl-2 expression in human NCI-H820 cells incubated for 48 hrs by Western blot analysis; type: functional, cell-based; settings: dose <= 5.0 µM
NCI-H820 [22] = assay: Inhibition of cell migration in human NCI-H820 cells assessed as decrease in migration rate incubated for 48 hrs by wound healing assay; type: functional, cell-based; settings: dose <= 5.0 µM
NCI-H820 [23] = assay: Inhibition of cell migration in human NCI-H820 cells assessed as decrease in migration rate incubated for 48 hrs by transwell assay; type: functional, cell-based; settings: dose <= 5.0 µM
NCI-H820 [24] = assay: Upregulation of E-cadherin level in human NCI-H820 cells upto 5 uM incubated for 48 hrs by Western blot analysis; type: functional, cell-based
NCI-H820 [25] = assay: Downregulation of Vimentin level in human NCI-H820 cells upto 5 uM incubated for 48 hrs by Western blot analysis; type: functional, cell-based
NCI-H820 [26] = assay: Downregulation of STAT3 level in human NCI-H820 cells incubated for 48 hrs by Western blot analysis; type: functional, cell-based; settings: dose <= 5.0 µM
[27] = target: Signal transducer and activator of transcription 3 (Homo sapiens) (UniProt P40763); assay: Inhibition of STAT3 phosphorylation in human NCI-H820 cells incubated for 48 hrs by Western blot analysis; type: cell-based; settings: dose <= 5.0 µM
Chain of Signal transducer and activator of transcription 3 (Homo sapiens) (P40763 whole entry): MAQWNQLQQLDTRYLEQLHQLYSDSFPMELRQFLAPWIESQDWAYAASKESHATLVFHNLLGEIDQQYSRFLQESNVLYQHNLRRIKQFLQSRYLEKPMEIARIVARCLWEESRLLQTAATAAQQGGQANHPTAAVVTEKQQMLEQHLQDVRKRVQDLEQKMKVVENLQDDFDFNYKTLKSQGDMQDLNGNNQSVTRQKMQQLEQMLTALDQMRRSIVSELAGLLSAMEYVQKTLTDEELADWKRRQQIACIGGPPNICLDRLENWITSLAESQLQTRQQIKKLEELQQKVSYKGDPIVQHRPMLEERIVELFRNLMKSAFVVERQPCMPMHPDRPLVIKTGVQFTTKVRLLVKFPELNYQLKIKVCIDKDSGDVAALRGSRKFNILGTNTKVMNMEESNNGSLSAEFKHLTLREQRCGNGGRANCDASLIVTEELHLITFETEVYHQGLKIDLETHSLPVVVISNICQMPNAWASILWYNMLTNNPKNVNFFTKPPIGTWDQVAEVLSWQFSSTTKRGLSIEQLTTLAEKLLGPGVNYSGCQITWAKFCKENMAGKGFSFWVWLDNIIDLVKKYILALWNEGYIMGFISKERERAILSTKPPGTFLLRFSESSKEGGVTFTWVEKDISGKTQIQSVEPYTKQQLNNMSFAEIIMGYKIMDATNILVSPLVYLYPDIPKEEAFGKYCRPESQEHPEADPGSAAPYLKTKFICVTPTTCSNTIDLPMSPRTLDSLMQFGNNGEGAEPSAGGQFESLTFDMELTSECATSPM

## C=C1C(=O)O[C@H]2[C@H]1CC/C(C)=C/CC[C@@]1(C)O[C@@H]21 [PARTHENOLIDE]
[1]; Homo sapiens, NCI-H820, 72 h
  pIC50: 5.20
Huh-7 [2]; Homo sapiens, Huh-7, 72 h
  pIC50: 5.44
PANC-1 [3]; Homo sapiens, PANC-1, 72 h
  pIC50: 5.29

## C=C1C(=O)O[C@H]2[C@H]1CC/C(C=C(F)F)=C\CC[C@@]1(C)O[C@@H]21
[1]; Homo sapiens, NCI-H820, 72 h
  pIC50: 5.00
Huh-7 [2]; Homo sapiens, Huh-7, 72 h
  pIC50: 5.12
PANC-1 [3]; Homo sapiens, PANC-1, 72 h
  pIC50: 4.85

## C[C@@]12CC/C=C(/CC(F)(F)F)CC[C@H]3C(CN4CC[C@@H](O)C4)C(=O)O[C@@H]3[C@@H]1O2 (some centres undefined) [listing 1 of 2 here]
[1]; Homo sapiens, NCI-H820, 72 h
  pIC50: 5.34
Huh-7 [2]; Homo sapiens, Huh-7, 72 h
  pIC50: 5.48
PANC-1 [3]; Homo sapiens, PANC-1, 72 h
  pIC50: 5.31

## C=C1C(=O)O[C@H]2[C@H]1CC/C(CSC(F)(F)F)=C\CC[C@@]1(C)O[C@@H]21
[1]; Homo sapiens, NCI-H820, 72 h
  pIC50: 5.86
Huh-7 [2]; Homo sapiens, Huh-7, 72 h
  pIC50: 6.00
PANC-1 [3]; Homo sapiens, PANC-1, 72 h
  pIC50: 5.96

## C[C@@]12CC/C=C(/CC(F)(F)F)CC[C@H]3C(CN4CCCC4)C(=O)O[C@@H]3[C@@H]1O2 (some centres undefined)
[1]; Homo sapiens, NCI-H820, 72 h
  pIC50: 5.18
Huh-7 [2]; Homo sapiens, Huh-7, 72 h
  pIC50: 5.45
PANC-1 [3]; Homo sapiens, PANC-1, 72 h
  pIC50: 5.25

## C[C@@]12CC/C=C(/CC(F)(F)F)CC[C@H]3C(CN4CC[C@@H](O)C4)C(=O)O[C@@H]3[C@@H]1O2 (some centres undefined) [listing 2 of 2 here]
[1]; nci-h820
  pIC50: 5.40
Huh-7 [2]; huh-7
  pIC50: 5.51
PANC-1 [3]; panc-1
  pIC50: 5.49

## CN(C)CC1C(=O)O[C@H]2[C@H]1CC/C(CC(F)(F)F)=C\CC[C@@]1(C)O[C@@H]21 (some centres undefined) [listing 1 of 2 here]
NCI-H820 [4]
  Activity: Active
NCI-H820 [5]
  Activity: Active

## C[C@@]12CC/C=C(/CC(F)(F)F)CC[C@H]3C(CN4CCC(O)CC4)C(=O)O[C@@H]3[C@@H]1O2 (some centres undefined)
[1]; nci-h820
  pIC50: 5.31
Huh-7 [2]; huh-7
  pIC50: 5.62
PANC-1 [3]; panc-1
  pIC50: 5.27

## CN(C)CC1C(=O)O[C@H]2[C@H]1CC/C(CC(F)(F)F)=C\CC[C@@]1(C)O[C@@H]21 (some centres undefined) [listing 2 of 2 here]
[1]; Homo sapiens, NCI-H820, 72 h
  pIC50: 5.41
Huh-7 [2]; Homo sapiens, Huh-7, 72 h
  pIC50: 5.58
PANC-1 [3]; Homo sapiens, PANC-1, 72 h
  pIC50: 5.42

## C=C1C(=O)O[C@H]2[C@H]1CC/C(CC(F)(F)F)=C\CC[C@@]1(C)O[C@@H]21
[1]; Homo sapiens, NCI-H820, 72 h
  pIC50: 5.58
Huh-7 [2]; Homo sapiens, Huh-7, 72 h
  pIC50: 5.63
PANC-1 [3]; Homo sapiens, PANC-1, 72 h
  pIC50: 5.67
NCI-H820 [6]
  inhibition: Active
Huh-7 [7]
  inhibition: Active
PANC-1 [8]
  inhibition: Active
[9]
  viability at 2 µM: 64%
[10]
  Activity: 0.14%
[11]
  Activity: 0.51%
[12]
  Activity: 1.4%
[13]
  viability at 5 µM: 86.8%
[14]
  Activity: 2.77%
[15]
  Activity: 6.54%
[16]
  Activity: 2.07%
[17]
  Activity: 0.06%
[18]
  Activity: 5.24%
[19]
  Activity: 0.55%
NCI-H820 [20]
  inhibition: Dose-dependent-effect
NCI-H820 [21]
  inhibition: Dose-dependent-effect
NCI-H820 [22]
  inhibition: Dose-dependent-effect
NCI-H820 [23]
  inhibition: Dose-dependent-effect
NCI-H820 [24]
  Activity: Active
NCI-H820 [25]
  Activity: Active
NCI-H820 [26]
  Activity: Dose-dependent-effect
[27]
  inhibition: Dose-dependent-effect

## CN1CCN(CC2C(=O)O[C@H]3[C@H]2CC/C(CC(F)(F)F)=C\CC[C@@]2(C)O[C@@H]32)CC1 (some centres undefined)
[1]; Homo sapiens, NCI-H820, 72 h
  pIC50: 4.51
Huh-7 [2]; Homo sapiens, Huh-7, 72 h
  pIC50: 4.83
PANC-1 [3]; Homo sapiens, PANC-1, 72 h
  pIC50: 4.80
